Data reported in US12724175B2, “Contact lens with optical prophylaxis” (High Performance Optics, Inc., priority 2021, dated 2026).
Where two headings read alike, the source gives them in different places.

Assays:
[1] = Stability under simulated photocuring conditions (450 nm LED, photoinitiator); type: physicochemical
Description: (§1) The stabilities of exemplary compounds 8 and 9 were evaluated under various conditions in the presence of initiator and monomer under curing conditions in comparison with copper tetraphenylporphyrin (Cu-TPP) and zinc tetraphenylporphyrin (Zn-TPP) as controls.
Experimental Procedure for Photo-Curing System:
• (A) for Stability Test without Monomers • 1. Parent solution: Dimethylacetamide (DMAC) solutions (200-500 ppm) of corresponding porphyrins, namely ZnTPP (200 ppm), CuTPP (200 ppm), Cu-TBP-Am (500 ppm), and Cu-TBP-MAm (500 ppm) were prepared in amber glass vial. The solutions were allowed to stir at room temperature for about 0.5 hour to provide homogeneous solutions. Photoinitiator (0.6 wt %) was added to each solution (under yellow light), and the solution was stirred for another 1 hour. • 2. Solution “BEFORE” Thermal Treatment & UV-VIS Measurement: The solution was transferred into 100 μm quartz cell and UV-Vis spectra were recorded using Perkin Elmer Lambda 850 UV-Vis Spectrophotometer. The spectrum was regarded as “before”. • 3. Photocuring of Parent Solution: Each quartz cell was exposed to 450 nm LED light with intensity of 55 mW/cm^2 for 30 s. • 4. Solution “AFTER” photocuring & UV-VIS Measurement: UV-Vis spectra of solutions in 100 μm quartz cell exposed to LED light were recorded using Perkin Elmer Lambda 850 UV-Vis Spectrophotometer. The spectrum was regarded as “after”. • 5. % T Calculation: % Loss is expressed as % T increase at the specific wavelength of Soret band for each porphyrin solution. • (B) For Stability Test with Monomers • 1. Parent solution: Cu-TBP-Am and Cu-TBP-MAm were dissolved in DMA (30 wt %), TRIS (30 wt %) and 1-PrOH (40 wt %) in amber glass vial to afford 500 ppm porphyrin solutions. The solutions were allowed to stir at room temperature for about 0.5 hour to provide homogeneous solutions. Photoinitiator (0.6 wt %) was added to each solution (under yellow light), and the solution was stirred for another 1 hour. • 2. Solution “BEFORE” Thermal Treatment & UV-VIS Measurement: The solution was transferred into 100 μm quartz cell and UV-Vis spectra were recorded using Perkin Elmer Lambda 850 UV-Vis Spectrophotometer. The spectrum was regarded as “before”. • 3. Photocuring of Parent Solution: Each quartz cell was exposed to 450 nm LED light with intensity of 55 mW/cm^2 for 30 s. • 4. Solution “AFTER” photocuring & UV-VIS Measurement: UV-Vis spectra of solutions in 100 μm quartz cell exposed to LED light were recorded using Perkin Elmer Lambda 850 UV-Vis Spectrophotometer. The spectrum was regarded as “after”. • 5. % T Calculation: % Loss is expressed as % T increase at the specific wavelength of Soret band for each porphyrin solution. Experimental Procedure for Thermal-Curing System: • (A) for Stability Test without Monomers • 1. Parent solution: Dimethylacetamide (DMAC) solutions (500 ppm) of corresponding porphyrins, namely ZnTPP, CuTPP, Cu-TBP-Am, and Cu-TBP-MAm were prepared in amber glass vial. The solutions were allowed to stir at room temperature for about 0.5 hours to provide homogeneous solutions. Vazo 64 (0.5 wt %) was added to each solution, and the solution was stirred for another 10 minutes. Each solution was bubbled with nitrogen for 5 minutes to remove oxygen. • 2. […] The solution was transferred into 1 cm quartz cell and UV-Vis spectra were recorded using Perkin Elmer Lambda 850 UV-Vis Spectrophotometer. […]

[2] = Solubility studies at 500 ppm in solvent, monomers and simulated formulation
Description: The solubilities of exemplary compounds 8 and 9 were evaluated in various solvent systems in comparison with copper tetraphenylporphyrin (Cu-TPP) as a control.
• 1. Weigh 3 to 4 mg of the Copper porphyrin compound into an 8 mL scintillation vial • 2. In the case of one solvent or monomer, dilute to 500 ppm with the solvent or monomer, add a stir bar, and stir mixture overnight. • 3. In the case of multiple solvents, add the best solvent for the copper porphyrin first, add a stir bar and stir for 1 hour. Add the other solvents and stir overnight. • 4. Evaluate solution miscibility after stirring overnight.

[3] = UV-visible transmittance, molar extinction coefficient of Soret band; type: physicochemical; conditions: concentrations 300 to 1000 ppm
Description: ^1H-NMR spectra were recorded on Bruker 600 MHz spectrometer. CD3OD (Methanol-d3) and DMSO-d6 (Dimethyl sulfoxide-d6) were used as solvents. UPLC of porphyrins was acquired on ACQUITY UPLC H-Class PLUS UPLC with Waters PDA detector, using Phenomenex Jupiter® 5 μm C18 300 Å, LC Column (150×2.0 mm). LC-MS of porphyrins was acquired on The Thermo Scientific™ Q Exactive™ HF hybrid quadrupole-Orbitrap mass spectrometer, using Phenomenex Aeris™ 3.6 μm WIDEPORE C4 200 Å, LC Column (50×2.1 mm). UV-vis spectra were obtained on Perkin Elmer Lambda 850 UV-Vis Spectrophotometer.
(§2) Compound 8 also characterized by UV-visible transmittance at concentrations ranging from 300 to 1000 ppm (FIG. 15). Molar extinction coefficients of 490,000-544,000 M-1 cm-1 for Soret band are in agreement with literature values for similar metallated porphyrins (Taniguchi, M.; Lindsey, J. S. Photochemistry and Photobiology, 2018, 94, 290-327).
as §2, with “Compound 9” for “Compound 8”, “(FIG. 16).” for “(FIG. 15).”, “490,000-544,000 M^−1 cm^−1” for “490,000-544,000 M-1 cm-1”

[4] = Stability under simulated thermal curing conditions (Vazo 64, 80° C., 2 hours); type: physicochemical; conditions: 500 ppm, Vazo 64 0.5 wt %; for Stability under simulated thermal curing, without monomers: DMAC
Description: as §1
• (A) for Stability Test without Monomers • 1. Parent solution: Dimethylacetamide (DMAC) solutions (200-500 ppm) of corresponding porphyrins, namely ZnTPP (200 ppm), CuTPP (200 ppm), Cu-TBP-Am (500 ppm), and Cu-TBP-MAm (500 ppm) were prepared in amber glass vial. The solutions were allowed to stir at room temperature for about 0.5 hour to provide homogeneous solutions. Photoinitiator (0.6 wt %) was added to each solution (under yellow light), and the solution was stirred for another 1 hour. • 2. Solution “BEFORE” Thermal Treatment & UV-VIS Measurement: The solution was transferred into 100 μm quartz cell and UV-Vis spectra were recorded using Perkin Elmer Lambda 850 UV-Vis Spectrophotometer. The spectrum was regarded as “before”. • 3. […] Solution “AFTER” photocuring & UV-VIS Measurement: UV-Vis spectra of solutions in 100 μm quartz cell exposed to LED light were recorded using Perkin Elmer Lambda 850 UV-Vis Spectrophotometer. The spectrum was regarded as “after”. • 5. % T Calculation: % Loss is expressed as % T increase at the specific wavelength of Soret band for each porphyrin solution. • (B) For Stability Test with Monomers • 1. […] Solution “BEFORE” Thermal Treatment & UV-VIS Measurement: The solution was transferred into 100 μm quartz cell and UV-Vis spectra were recorded using Perkin Elmer Lambda 850 UV-Vis Spectrophotometer. […] Solution “AFTER” photocuring & UV-VIS Measurement: UV-Vis spectra of solutions in 100 μm quartz cell exposed to LED light were recorded using Perkin Elmer Lambda 850 UV-Vis Spectrophotometer. The spectrum was regarded as “after”. • 5. % T Calculation: % Loss is expressed as % T increase at the specific wavelength of Soret band for each porphyrin solution. […] The solution was transferred into 1 cm quartz cell and UV-Vis spectra were recorded using Perkin Elmer Lambda 850 UV-Vis Spectrophotometer. […]

[5] = 500 ppm, 1-Propanol, stirred overnight
[6] = 500 ppm, monomer DMA, stirred overnight
[7] = 500 ppm, monomer HEMA, stirred overnight
[8] = 500 ppm, simulated formulation 1-PrOH/DMA/TRIS (1:1:1)
[9] = 500 ppm, simulated formulation 1-PrOH/DMA/TRIS/Silicone oil (1:1:1:1)
[10] = DMAC, photoinitiator 0.6 wt %, 450 nm LED 55 mW/cm^2 for 30 s

Compound	Stability (% T increase at Soret band) under simulated photocuring, without monomers [1]	Solubility [2]	Molar extinction coefficients for Soret band [3]	Solubility [2, 5]	Solubility [2, 6]	Solubility [2, 7]	Solubility [2, 8]	Solubility [2, 9]	Stability (% T increase at Soret band) under simulated photocuring, without monomers [1, 10]	Stability under simulated thermal curing, without monomers [4]	Stability (% T increase at Soret band) under simulated photocuring, with monomers ([1]; DMA/TRIS/1-PrOH, 500 ppm, photoinitiator 0.6 wt %, 450 nm LED 55 mW/cm^2 for 30 s)	Stability under simulated thermal curing, with monomers ([4]; DMA/TRIS/1-PrOH)
C=C(C)C(=O)NCCC[N+](C)(C)Cc1ccc(/C2=C3\C=CC(=N3)/C(c3ccc(C[N+](C)(C)CCCNC(=O)C(=C)C)cc3)=c3/cc/c4[n]3[Cu][n]3c2ccc3/C(c2ccc(C[N+](C)(C)CCCNC(=O)C(=C)C)cc2)=C2/C=CC(=N2)\C=4c2ccc(C[N+](C)(C)CCCNC(=O)C(=C)C)cc2)cc1 [Compound 8, Cu(II) tetra-(dimethylaminopropylmethacrylamidophenyl) porphine tetrabromide]	show % T increase	Soluble	490,000-544,000 M^−1 cm^−1									
copper tetraphenylporphyrin [Cu-TPP, reference compound]	significantly more stable than ZnTPP			Insoluble	Soluble	Insoluble	Insoluble	Insoluble				
C1=Cc2nc1c(-c1ccccc1)c1ccc([n-]1)c(-c1ccccc1)c1nc(c(-c3ccccc3)c3ccc([n-]3)c2-c2ccccc2)C=C1.[Zn+2] [ZnTPP, zinc tetraphenylporphyrin, reference compound]									CuTPP is significantly more stable than ZnTPP	difference is not observed		
C=CC(=O)NCCC[N+](C)(C)Cc1ccc(/C2=C3\C=CC(=N3)/C(c3ccc(C[N+](C)(C)CCCNC(=O)C=C)cc3)=c3/cc/c4[n]3[Cu][n]3c2ccc3/C(c2ccc(C[N+](C)(C)CCCNC(=O)C=C)cc2)=C2/C=CC(=N2)\C=4c2ccc(C[N+](C)(C)CCCNC(=O)C=C)cc2)cc1 [Compound 9, Cu(II) tetra-(dimethylaminopropylacrylamidophenyl) porphine tetrabromide]			490,000-544,000 M^−1 cm^−1	Soluble	Partially	Soluble	Soluble	Partially	show % T increase	much better stability	not observed	much better stability
